± gives the standard deviation of the averaged measurements.
compound: CC(=O)N1CCc2c(c(N3CCCc4cc(-c5cnn(C)c5)c(C(F)F)cc43)nn2C2CCC(CN3CCN(c4ccc5c(c4)C(=O)N(C4CCC(=O)NC4=O)C5=O)CC3)CC2)C1 [CBPD-409]; assay: AUC of viability dose-response curve (relative to vehicle, 8 doses up to 10 µM) (fraction); higher = less sensitive (more viable); extreme values may be limits of the assay
Protocol: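 PRISM multiplexed pooled barcoded cell line viability screen at the Broad Institute, 887 cancer cell lines treated with CBPD-409 (p300/CBP PROTAC degrader) at 8 concentrations in threefold dilution, top dose 10 µM. The read-out is the area under the dose-response curve of relative viability versus vehicle (n=3). AUC < 0.3 is called strongly sensitive and AUC > 0.8 resistant.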

Going from SNU119_OVARY to SNU182_LIVER, the “AUC of viability dose-response curve” value falls from 1 to 0.274.

Compared with SNU201_CENTRAL_NERVOUS_SYSTEM, SNU213_PANCREAS is higher in “AUC of viability dose-response curve” value: 0.382 for the first, 0.933 for the second.

First: SNU216_STOMACH
Second: SNU245_BILIARY_TRACT
The “AUC of viability dose-response curve” value of the first is higher: 1 for the first, 0.719 for the second.

First: SNU308_BILIARY_TRACT
Second: SNU398_LIVER
The “AUC of viability dose-response curve” value of the first is higher: 0.95 for the first, 0.849 for the second.

Going from SNU407_LARGE_INTESTINE to SNU410_PANCREAS, the “AUC of viability dose-response curve” value rises from 0.502 to 1.

Compared with SNU423_LIVER, SNU449_LIVER is higher in “AUC of viability dose-response curve” value: 0.751 for the first, 0.947 for the second.

First: SNU466_CENTRAL_NERVOUS_SYSTEM
Second: SNU478_BILIARY_TRACT
The “AUC of viability dose-response curve” value of the first is higher: 0.909 for the first, 0.861 for the second.

Going from SNU489_CENTRAL_NERVOUS_SYSTEM to SNU601_STOMACH, the “AUC of viability dose-response curve” value falls from 1 to 0.563.

First: SNU638_STOMACH
Second: SNU668_STOMACH
The “AUC of viability dose-response curve” value of the first is lower: 0.48 for the first, 0.999 for the second.

Going from SNU685_ENDOMETRIUM to SNU719_STOMACH, the “AUC of viability dose-response curve” value falls from 1 to 0.969.

First: SNU761_LIVER
Second: SNU840_OVARY
The “AUC of viability dose-response curve” value of the first is lower: 0.855 for the first, 1 for the second.

Going from SNU869_BILIARY_TRACT to SNU886_LIVER, the “AUC of viability dose-response curve” value falls from 1 to 0.853.

Going from SNU899_UPPER_AERODIGESTIVE_TRACT to SNU1041_UPPER_AERODIGESTIVE_TRACT, the “AUC of viability dose-response curve” value rises from 0.668 to 0.703.

First: SNU1066_UPPER_AERODIGESTIVE_TRACT
Second: SNU1076_UPPER_AERODIGESTIVE_TRACT
The “AUC of viability dose-response curve” value of the first is higher: 1 for the first, 0.845 for the second.

Going from SNU1077_ENDOMETRIUM to SNU1079_BILIARY_TRACT, the “AUC of viability dose-response curve” value falls from 0.846 to 0.648.

Going from SNU1105_CENTRAL_NERVOUS_SYSTEM to SNU1196_BILIARY_TRACT, the “AUC of viability dose-response curve” value rises from 0.577 to 1.

Compared with SNU1214_UPPER_AERODIGESTIVE_TRACT, SNU1544_LARGE_INTESTINE is higher in “AUC of viability dose-response curve” value: 0.739 for the first, 0.806 for the second.

Compared with SNU2372_BREAST, SNUC2A_LARGE_INTESTINE is lower in “AUC of viability dose-response curve” value: 1 for the first, 0.514 for the second.

Going from SNUC4_LARGE_INTESTINE to SQ1_LUNG, the “AUC of viability dose-response curve” value rises from 0.595 to 1.

Going from SSP25_BILIARY_TRACT to STM9101_SOFT_TISSUE, the “AUC of viability dose-response curve” value rises from 0.801 to 1.

Going from “SUDHL1_HAEMATOPOIETIC_AND_LYMPHOID_TISSUE” to “SUDHL4_HAEMATOPOIETIC_AND_LYMPHOID_TISSUE”, the “AUC of viability dose-response curve” value rises from 0.75 to 0.958.

Going from “SUDHL8_HAEMATOPOIETIC_AND_LYMPHOID_TISSUE” to SUIT2_PANCREAS, the “AUC of viability dose-response curve” value rises from 0.726 to 1.

Going from SUM149PT_BREAST to SUM159PT_BREAST, the “AUC of viability dose-response curve” value falls from 0.789 to 0.732.

Compared with “SUPB15_HAEMATOPOIETIC_AND_LYMPHOID_TISSUE”, “SUPT11_HAEMATOPOIETIC_AND_LYMPHOID_TISSUE” is higher in “AUC of viability dose-response curve” value: 0.185 for the first, 1 for the second.

Going from SUSA_TESTIS to SW13_ADRENAL_CORTEX, the “AUC of viability dose-response curve” value rises from 0.578 to 0.602.

First: SW156_KIDNEY
Second: SW480_LARGE_INTESTINE
The “AUC of viability dose-response curve” value of the first is lower: 0.884 for the first, 1 for the second.

First: SW579_THYROID
Second: SW620_LARGE_INTESTINE
The “AUC of viability dose-response curve” value of the first is lower: 0.197 for the first, 0.559 for the second.

First: SW626_LARGE_INTESTINE
Second: SW756_CERVIX
The “AUC of viability dose-response curve” value of the first is lower: 0.387 for the first, 0.437 for the second.

First: SW780_URINARY_TRACT
Second: SW837_LARGE_INTESTINE
The “AUC of viability dose-response curve” value of the first is higher: 1 for the first, 0.72 for the second.

First: SW900_LUNG
Second: SW948_LARGE_INTESTINE
The “AUC of viability dose-response curve” value of the first is higher: 0.853 for the first, 0.577 for the second.

Going from SW954_CERVIX to SW1088_CENTRAL_NERVOUS_SYSTEM, the “AUC of viability dose-response curve” value rises from 0.702 to 1.

Going from SW1116_LARGE_INTESTINE to SW1271_LUNG, the “AUC of viability dose-response curve” value falls from 1 to 0.564.

SW1353_BONE and SW1463_LARGE_INTESTINE are the same in “AUC of viability dose-response curve” value: 1 for the first, 1 for the second.

First: SW1573_LUNG
Second: SW1710_URINARY_TRACT
The “AUC of viability dose-response curve” value of the first is higher: 1 for the first, 0.8 for the second.

Compared with SW1783_CENTRAL_NERVOUS_SYSTEM, SW1990_PANCREAS is higher in “AUC of viability dose-response curve” value: 0.884 for the first, 1 for the second.

Compared with T3M5_THYROID, T3M10_LUNG is lower in “AUC of viability dose-response curve” value: 0.776 for the first, 0.64 for the second.

Going from T24_URINARY_TRACT to T47D_BREAST, the “AUC of viability dose-response curve” value falls from 1 to 0.593.

Going from T84_LARGE_INTESTINE to T98G_CENTRAL_NERVOUS_SYSTEM, the “AUC of viability dose-response curve” value falls from 1 to 0.8.

Going from “TALL1_HAEMATOPOIETIC_AND_LYMPHOID_TISSUE” to “TANOUE_HAEMATOPOIETIC_AND_LYMPHOID_TISSUE”, the “AUC of viability dose-response curve” value rises from 0.762 to 1.

First: TASK1_CENTRAL_NERVOUS_SYSTEM
Second: TC32_BONE
The “AUC of viability dose-response curve” value of the first is lower: 0.342 for the first, 0.859 for the second.

Compared with TC106_BONE, TC205_BONE is lower in “AUC of viability dose-response curve” value: 1 for the first, 0.543 for the second.

First: TCCPAN2_PANCREAS
Second: TCCSUP_URINARY_TRACT
The “AUC of viability dose-response curve” value of the first is lower: 0.875 for the first, 1 for the second.

First: TE1_OESOPHAGUS
Second: TE5_OESOPHAGUS
The “AUC of viability dose-response curve” value of the first is lower: 0.884 for the first, 0.998 for the second.

Going from TE6_OESOPHAGUS to TE8_OESOPHAGUS, the “AUC of viability dose-response curve” value falls from 0.914 to 0.646.

First: TE9_OESOPHAGUS
Second: TE10_OESOPHAGUS
The “AUC of viability dose-response curve” value of the first is higher: 1 for the first, 0.501 for the second.

Compared with TE11_OESOPHAGUS, TE14_OESOPHAGUS is lower in “AUC of viability dose-response curve” value: 0.986 for the first, 0.86 for the second.

Compared with TE15_OESOPHAGUS, TE617T_SOFT_TISSUE is higher in “AUC of viability dose-response curve” value: 0.364 for the first, 0.851 for the second.

Compared with TEN_ENDOMETRIUM, TF1_HAEMATOPOIETIC_AND_LYMPHOID_TISSUE is higher in “AUC of viability dose-response curve” value: 0.726 for the first, 0.757 for the second.

Going from TFK1_BILIARY_TRACT to TGBC1TKB_BILIARY_TRACT, the “AUC of viability dose-response curve” value rises from 0.717 to 1.

First: TGBC18TKB_LARGE_INTESTINE
Second: TGBC52TKB_BILIARY_TRACT
The “AUC of viability dose-response curve” value of the first is higher: 0.938 for the first, 0.745 for the second.

Compared with TGW_AUTONOMIC_GANGLIA, THP1_HAEMATOPOIETIC_AND_LYMPHOID_TISSUE is higher in “AUC of viability dose-response curve” value: 0.673 for the first, 1 for the second.

First: TM31_CENTRAL_NERVOUS_SYSTEM
Second: TM87_SOFT_TISSUE
The “AUC of viability dose-response curve” value of the first is higher: 0.826 for the first, 0.367 ± 0.19 for the second.

Going from “TOLEDO_HAEMATOPOIETIC_AND_LYMPHOID_TISSUE” to TOV21G_OVARY, the “AUC of viability dose-response curve” value rises from 0.416 to 0.644.

Going from TOV112D_OVARY to TT1TKB_LARGE_INTESTINE, the “AUC of viability dose-response curve” value rises from 0.724 to 1.

Compared with TT2609C02_THYROID, TTC442_SOFT_TISSUE is higher in “AUC of viability dose-response curve” value: 0.775 for the first, 0.911 for the second.

First: TTC549_SOFT_TISSUE
Second: TTC642_SOFT_TISSUE
The “AUC of viability dose-response curve” value of the first is lower: 0.52 for the first, 0.541 for the second.

First: TTC709_SOFT_TISSUE
Second: TTC1240_SOFT_TISSUE
The “AUC of viability dose-response curve” value of the first is higher: 0.23 for the first, 0.187 for the second.

Going from TT_OESOPHAGUS to TT_THYROID, the “AUC of viability dose-response curve” value falls from 0.566 to 0.15.

Going from TUHR4TKB_KIDNEY to TYKNU_OVARY, the “AUC of viability dose-response curve” value falls from 1 to 0.386.

Compared with U2OS_BONE, U87MG_CENTRAL_NERVOUS_SYSTEM is lower in “AUC of viability dose-response curve” value: 1 for the first, 0.732 for the second.

Compared with U118MG_CENTRAL_NERVOUS_SYSTEM, U178_CENTRAL_NERVOUS_SYSTEM is lower in “AUC of viability dose-response curve” value: 0.983 for the first, 0.636 for the second.

Compared with U251MG_CENTRAL_NERVOUS_SYSTEM, “U266B1_HAEMATOPOIETIC_AND_LYMPHOID_TISSUE” is lower in “AUC of viability dose-response curve” value: 0.873 for the first, 0.784 for the second.

U343_CENTRAL_NERVOUS_SYSTEM and U937_HAEMATOPOIETIC_AND_LYMPHOID_TISSUE are the same in “AUC of viability dose-response curve” value: 1 for the first, 1 for the second.

Going from “U2904_HAEMATOPOIETIC_AND_LYMPHOID_TISSUE” to “U2940_HAEMATOPOIETIC_AND_LYMPHOID_TISSUE”, the “AUC of viability dose-response curve” value rises from 0.826 to 1.

First: U2973_HAEMATOPOIETIC_AND_LYMPHOID_TISSUE
Second: UACC62_SKIN
The “AUC of viability dose-response curve” value of the first is lower: 0.734 for the first, 0.901 for the second.

First: UACC257_SKIN
Second: UBLC1_URINARY_TRACT
The “AUC of viability dose-response curve” value of the first is higher: 1 for the first, 0.437 for the second.

First: ULA_HAEMATOPOIETIC_AND_LYMPHOID_TISSUE
Second: UMRC3_KIDNEY
The “AUC of viability dose-response curve” value of the first is lower: 0.813 for the first, 0.929 for the second.

First: UMRC7_KIDNEY
Second: UMUC1_URINARY_TRACT
The “AUC of viability dose-response curve” value of the first is higher: 0.773 for the first, 0.703 for the second.

First: UMUC5_URINARY_TRACT
Second: UMUC6_URINARY_TRACT
The “AUC of viability dose-response curve” value of the first is higher: 0.749 for the first, 0.585 for the second.

UMUC7_URINARY_TRACT was tested, and the “AUC of viability dose-response curve” value was 1.

From the supplement of paper PMC12513837
